Patent US9073974B2, “RGD-containing cyclic peptides” (The Regents of the University of California, priority 2009, dated 2015)
“Also recorded” adds a separate entry of the source. Bridge positions count the residues as written; N and C are the ends. Square brackets hold non-standard residues; d marks the D form. Peptide text beside a SMILES is read from it.

Tests used:
αvβ3 = molecular target: T1, αvβ3 (Homo sapiens, UniProt P05106+P06756); test: Staining of αvβ3 transfected K562 cells with biotinylated peptide and streptavidin-PE (flow cytometry); format: binding; conditions: 1 μM biotinylated peptide, Streptavidin-PE
T1 construct: expressed in transfected cells; host or cells: K562 (gift of Dr. Yoshikazu Takada, UC Davis)
T1 sequence (P06756 31-889 limits assumed): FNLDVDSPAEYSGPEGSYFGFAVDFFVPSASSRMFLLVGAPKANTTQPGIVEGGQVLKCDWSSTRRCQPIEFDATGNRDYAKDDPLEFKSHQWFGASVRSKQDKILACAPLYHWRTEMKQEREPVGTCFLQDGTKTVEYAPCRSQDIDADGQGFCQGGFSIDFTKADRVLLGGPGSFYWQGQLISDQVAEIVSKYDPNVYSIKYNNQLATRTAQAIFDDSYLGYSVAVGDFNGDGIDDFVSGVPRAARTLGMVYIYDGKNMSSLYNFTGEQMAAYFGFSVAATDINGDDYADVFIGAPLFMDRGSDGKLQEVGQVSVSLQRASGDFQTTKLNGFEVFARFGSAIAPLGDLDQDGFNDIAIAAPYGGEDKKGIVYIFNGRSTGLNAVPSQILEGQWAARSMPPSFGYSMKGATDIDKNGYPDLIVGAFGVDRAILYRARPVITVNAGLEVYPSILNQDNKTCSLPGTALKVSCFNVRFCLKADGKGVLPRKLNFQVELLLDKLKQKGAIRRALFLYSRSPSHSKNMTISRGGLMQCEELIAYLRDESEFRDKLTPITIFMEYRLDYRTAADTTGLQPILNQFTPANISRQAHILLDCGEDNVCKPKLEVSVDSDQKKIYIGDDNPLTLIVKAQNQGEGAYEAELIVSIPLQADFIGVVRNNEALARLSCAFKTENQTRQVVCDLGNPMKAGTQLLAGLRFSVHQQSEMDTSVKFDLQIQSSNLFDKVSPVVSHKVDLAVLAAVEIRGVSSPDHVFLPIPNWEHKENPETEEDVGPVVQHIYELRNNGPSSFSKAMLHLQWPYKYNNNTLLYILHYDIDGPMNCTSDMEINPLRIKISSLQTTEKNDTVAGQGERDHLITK
T1 sequence (P06756 891-1048 partner limits assumed): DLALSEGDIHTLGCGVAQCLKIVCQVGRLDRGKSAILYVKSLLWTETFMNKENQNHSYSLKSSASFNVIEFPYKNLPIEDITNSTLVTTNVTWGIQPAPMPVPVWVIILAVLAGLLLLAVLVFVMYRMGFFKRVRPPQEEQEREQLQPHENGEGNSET
T1 sequence (P05106 27-788): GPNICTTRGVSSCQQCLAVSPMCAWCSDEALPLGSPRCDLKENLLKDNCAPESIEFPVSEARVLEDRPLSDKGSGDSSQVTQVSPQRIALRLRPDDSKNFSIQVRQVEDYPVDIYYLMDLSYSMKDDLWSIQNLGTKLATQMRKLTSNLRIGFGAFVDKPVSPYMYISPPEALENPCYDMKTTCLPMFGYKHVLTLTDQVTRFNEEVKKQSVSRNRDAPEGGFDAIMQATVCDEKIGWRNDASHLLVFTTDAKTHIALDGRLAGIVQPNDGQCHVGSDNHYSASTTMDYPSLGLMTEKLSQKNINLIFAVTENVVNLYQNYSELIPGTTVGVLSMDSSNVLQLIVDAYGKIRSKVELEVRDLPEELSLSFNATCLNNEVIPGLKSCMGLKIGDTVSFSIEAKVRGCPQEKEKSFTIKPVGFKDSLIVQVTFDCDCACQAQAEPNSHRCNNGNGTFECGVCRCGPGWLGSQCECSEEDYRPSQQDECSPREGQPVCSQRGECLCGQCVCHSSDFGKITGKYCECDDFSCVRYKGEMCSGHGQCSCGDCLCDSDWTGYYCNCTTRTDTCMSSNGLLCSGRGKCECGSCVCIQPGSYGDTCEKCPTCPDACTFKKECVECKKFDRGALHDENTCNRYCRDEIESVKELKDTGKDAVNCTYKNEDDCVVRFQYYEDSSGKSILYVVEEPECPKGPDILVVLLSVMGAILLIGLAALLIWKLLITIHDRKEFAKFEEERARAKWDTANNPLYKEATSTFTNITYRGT
Description: (§1) After one time wash, samples were tested. […] Then the specific binding equaled to substraction of nonspecific binding from total binding and Kds were analyzed.
(§2) To test the specificity of LXW7, LXW7 was prepared in biotinylated form and incubated with α1, α2, α3, α4, α6, α9, αIIbβ3 and αvβ3 transfected K562 and parent K562 cells (α5β1), followed by incubation with streptavidin-PE. […] The binding affinities of LXW7 and these cyclic RGD pentapeptides against αvβ3 integrin were compared based on their ability to inhibit FITC-Echistatin binding with αvβ3-K562.

αIIbβ3 = molecular target: T2, αIIbβ3 (Homo sapiens, UniProt P05106+P08514); test: Staining of αIIbβ3 transfected K562 cells with biotinylated peptide and streptavidin-PE (flow cytometry); format: binding; conditions: 1 μM biotinylated peptide, Streptavidin-PE
T2 construct: expressed in transfected cells; host or cells: K562 (gift of Dr. Jennifer Cochran and Dr. Scott D. Blystone)
Description: as §1, §2

α5β1 = molecular target: T3, α5β1 (Homo sapiens, UniProt P05556+P08648); test: Staining of parent K562 cells (α5β1) with biotinylated peptide and streptavidin-PE (flow cytometry); format: binding; conditions: 1 μM biotinylated peptide, Streptavidin-PE
T3 construct: host or cells: parent (non-transfected) K562
T3 sequence (P08648 42-894 limits assumed): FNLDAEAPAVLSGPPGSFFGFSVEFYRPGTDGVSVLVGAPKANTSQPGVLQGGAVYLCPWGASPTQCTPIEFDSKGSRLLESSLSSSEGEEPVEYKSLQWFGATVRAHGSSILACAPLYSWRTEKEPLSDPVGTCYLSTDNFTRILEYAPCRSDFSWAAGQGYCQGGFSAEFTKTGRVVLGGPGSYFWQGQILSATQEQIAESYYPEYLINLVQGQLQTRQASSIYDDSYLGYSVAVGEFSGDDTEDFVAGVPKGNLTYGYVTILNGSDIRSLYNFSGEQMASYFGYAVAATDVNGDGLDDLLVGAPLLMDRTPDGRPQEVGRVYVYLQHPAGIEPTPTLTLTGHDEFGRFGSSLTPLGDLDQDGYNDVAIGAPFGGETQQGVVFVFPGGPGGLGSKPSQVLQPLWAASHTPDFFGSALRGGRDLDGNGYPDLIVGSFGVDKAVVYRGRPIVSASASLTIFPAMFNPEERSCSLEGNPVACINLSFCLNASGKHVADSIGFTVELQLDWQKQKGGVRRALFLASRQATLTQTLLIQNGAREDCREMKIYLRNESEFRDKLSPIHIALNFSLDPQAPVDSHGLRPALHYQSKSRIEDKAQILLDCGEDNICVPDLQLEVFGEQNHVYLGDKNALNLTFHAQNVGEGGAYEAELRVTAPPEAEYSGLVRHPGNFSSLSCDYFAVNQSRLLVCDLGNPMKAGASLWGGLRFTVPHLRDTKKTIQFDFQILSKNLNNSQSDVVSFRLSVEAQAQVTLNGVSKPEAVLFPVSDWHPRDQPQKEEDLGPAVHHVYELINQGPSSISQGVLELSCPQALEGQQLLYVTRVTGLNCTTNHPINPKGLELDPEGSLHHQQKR
T3 sequence (P08648 895-1049 partner limits assumed): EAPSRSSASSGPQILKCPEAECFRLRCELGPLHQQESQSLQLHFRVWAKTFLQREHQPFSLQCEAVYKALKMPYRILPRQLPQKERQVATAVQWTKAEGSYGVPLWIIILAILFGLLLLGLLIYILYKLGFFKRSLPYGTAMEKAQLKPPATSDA
T3 sequence (P05556 21-798): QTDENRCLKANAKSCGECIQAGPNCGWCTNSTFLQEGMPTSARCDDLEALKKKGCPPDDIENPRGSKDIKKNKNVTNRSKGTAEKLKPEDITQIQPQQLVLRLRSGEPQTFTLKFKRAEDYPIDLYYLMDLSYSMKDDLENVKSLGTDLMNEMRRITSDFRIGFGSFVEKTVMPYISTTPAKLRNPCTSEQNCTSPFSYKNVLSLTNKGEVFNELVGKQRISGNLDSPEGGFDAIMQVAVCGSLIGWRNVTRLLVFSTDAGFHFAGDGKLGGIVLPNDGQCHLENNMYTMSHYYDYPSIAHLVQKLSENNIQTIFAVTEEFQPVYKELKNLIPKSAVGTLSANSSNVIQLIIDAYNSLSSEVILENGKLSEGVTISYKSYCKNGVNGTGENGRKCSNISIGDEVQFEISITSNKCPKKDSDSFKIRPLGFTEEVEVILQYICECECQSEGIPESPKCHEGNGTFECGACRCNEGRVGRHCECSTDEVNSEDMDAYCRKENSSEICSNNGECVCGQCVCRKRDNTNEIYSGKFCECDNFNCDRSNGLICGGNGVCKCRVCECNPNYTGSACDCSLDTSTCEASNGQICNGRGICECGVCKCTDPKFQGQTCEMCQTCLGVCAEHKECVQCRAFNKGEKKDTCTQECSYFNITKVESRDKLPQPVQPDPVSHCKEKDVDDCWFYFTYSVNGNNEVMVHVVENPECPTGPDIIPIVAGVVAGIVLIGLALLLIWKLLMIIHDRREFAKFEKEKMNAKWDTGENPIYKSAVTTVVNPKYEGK
Description: as §1, §2

α1 = molecular target: T4, α1 (Homo sapiens, UniProt P56199); test: Staining of α1 transfected K562 cells with biotinylated peptide and streptavidin-PE (flow cytometry); format: binding; conditions: 1 μM LXW7-Bio, Streptavidin-PE
T4 construct: expressed in transfected cells; host or cells: K562 (gift of Dr. Yoshikazu Takada)
Description: as §1, §2

α2 = molecular target: T5, α2 (Homo sapiens, UniProt P17301); test: Staining of α2 transfected K562 cells with biotinylated peptide and streptavidin-PE (flow cytometry); format: binding; conditions: 1 μM LXW7-Bio, Streptavidin-PE
T5 construct: expressed in transfected cells; host or cells: K562 (gift of Dr. Yoshikazu Takada)
Description: as §1, §2

α3 = molecular target: T6, α3 (Homo sapiens, UniProt P05556+P26006); test: Staining of α3 transfected K562 cells with biotinylated peptide and streptavidin-PE (flow cytometry); format: binding; conditions: 1 μM LXW7-Bio, Streptavidin-PE
T6 construct: expressed in transfected cells; host or cells: K562 (gift of Dr. Yoshikazu Takada)
Description: as §1, §2

α4 = molecular target: T7, α4 (Homo sapiens, UniProt P05556+P13612); test: Staining of α4 transfected K562 cells with biotinylated peptide and streptavidin-PE (flow cytometry); format: binding; conditions: 1 μM LXW7-Bio, Streptavidin-PE
T7 construct: expressed in transfected cells; host or cells: K562 (gift of Dr. Yoshikazu Takada)
Description: as §1, §2

α6 = molecular target: T8, α6 (Homo sapiens, UniProt P05556+P23229); test: Staining of α6 transfected K562 cells with biotinylated peptide and streptavidin-PE (flow cytometry); format: binding; conditions: 1 μM LXW7-Bio, Streptavidin-PE
T8 construct: expressed in transfected cells; host or cells: K562 (gift of Dr. Yoshikazu Takada)
Description: as §1, §2

α9 = molecular target: T9, α9 (Homo sapiens, UniProt P05556+Q13797); test: Staining of α9 transfected K562 cells with biotinylated peptide and streptavidin-PE (flow cytometry); format: binding; conditions: 1 μM LXW7-Bio, Streptavidin-PE
T9 construct: expressed in transfected cells; host or cells: K562 (gift of Dr. Yoshikazu Takada)
T9 sequence (Q13797 30-1035): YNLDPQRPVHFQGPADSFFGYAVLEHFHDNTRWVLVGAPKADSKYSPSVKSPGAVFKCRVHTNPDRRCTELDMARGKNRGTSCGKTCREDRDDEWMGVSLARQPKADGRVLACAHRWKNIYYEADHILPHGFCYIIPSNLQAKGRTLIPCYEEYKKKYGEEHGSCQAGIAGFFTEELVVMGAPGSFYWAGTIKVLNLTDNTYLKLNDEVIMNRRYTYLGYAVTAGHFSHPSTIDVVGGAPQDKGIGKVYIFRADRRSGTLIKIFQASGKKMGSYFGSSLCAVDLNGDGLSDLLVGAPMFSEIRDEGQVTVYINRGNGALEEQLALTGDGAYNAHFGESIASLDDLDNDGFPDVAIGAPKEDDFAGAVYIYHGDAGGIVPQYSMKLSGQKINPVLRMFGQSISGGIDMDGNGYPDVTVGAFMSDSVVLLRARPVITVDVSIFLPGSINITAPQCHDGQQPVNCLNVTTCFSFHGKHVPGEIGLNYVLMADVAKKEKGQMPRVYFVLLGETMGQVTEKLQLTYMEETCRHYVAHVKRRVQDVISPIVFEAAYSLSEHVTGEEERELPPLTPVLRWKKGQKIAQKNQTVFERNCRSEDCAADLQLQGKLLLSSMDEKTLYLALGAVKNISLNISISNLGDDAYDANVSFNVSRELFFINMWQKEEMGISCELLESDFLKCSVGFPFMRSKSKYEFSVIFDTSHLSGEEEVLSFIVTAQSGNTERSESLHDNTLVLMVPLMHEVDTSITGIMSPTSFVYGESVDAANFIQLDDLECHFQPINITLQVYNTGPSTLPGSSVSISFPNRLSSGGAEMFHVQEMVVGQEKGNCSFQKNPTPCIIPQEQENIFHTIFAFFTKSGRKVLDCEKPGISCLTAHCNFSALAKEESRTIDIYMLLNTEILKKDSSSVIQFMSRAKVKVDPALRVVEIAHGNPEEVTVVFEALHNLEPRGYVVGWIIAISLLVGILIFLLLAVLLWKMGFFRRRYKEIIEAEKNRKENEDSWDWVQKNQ
T9 sequence (P05556 21-798): as the sequence (P05556 21-798) above
Description: as §1, §2

U-87 MG xenograft = test: In vivo and ex vivo near infra red fluorescent imaging, U-87 MG xenograft; design: species or system nude mice; conditions: complex of Streptavidin-Cy5.5 with biotinylated peptide, 6 hrs after tail vein injection
Description: Animal studies were performed according to a protocol approved by IACUC of the University of California, Davis.
Animals were placed on a sheet of transparency in different position. […] Images were captured with a CCD camera set at F stop=0, FOV=150, and FP=0. Six hours post injection of imaging complex, the mice were conducted in vivo imaging, then were sacrificed and organs were excised for ex vivo imaging.

αvβ3 integrin [1] = molecular target: T10, αvβ3 integrin (Homo sapiens, UniProt P05106+P06756); test: Equilibrium binding and antibody blocking of LXW7-Bio on U-87 MG glioblastoma cells (flow cytometry); design: host or cells: U-87MG (A5)
T10 sequence (P06756 31-889 limits assumed): as the sequence (P06756 31-889 limits assumed) above
T10 sequence (P06756 891-1048 partner limits assumed): as the sequence (P06756 891-1048 partner limits assumed) above
T10 sequence (P05106 27-788): as the sequence (P05106 27-788) above
Description: as §1
(§3) The samples were analyzed with Coulter XL-MCL flow cytometry. The histogram and mean fluorescence intensity (MFI) were determined. The apparent Kd, IC50 were calculated using Graph Prism software (≦www.graphpad.com≧).

αvβ3 integrin [2] = molecular target: T10, αvβ3 integrin; test: Equilibrium binding and antibody blocking of LXW7-Bio on A375M melanoma cells (flow cytometry); design: host or cells: A375M (A4); U-87MG (A5)
Description: as §1, §3

αvβ3 integrin [3] = molecular target: T10, αvβ3 integrin; test: Inhibition of FITC-Echistatin binding to αvβ3-K562 cells (flow cytometry); design: expressed in transfected cells; host or cells: K562 (gift of Dr. Yoshikazu Takada, UC Davis)
Description: as §3

αvβ3 integrin [4] = molecular target: T10, αvβ3 integrin; test: Inhibition of biotinylated LXW7 binding to αvβ3-K562 cells (flow cytometry); design: expressed in transfected cells; host or cells: K562 (gift of Dr. Yoshikazu Takada, UC Davis); conditions: LXW9-92: inhibiting the binding of biotinylated LXW7 against αvβ3-K562 cells, LXW7 as internal reference
Description: The apparent IC50 were calculated using Graph Prism software (≦www.graphpad.com≧).
as §3

αvβ3 integrin [5] = molecular target: T10, αvβ3 integrin; test: Equilibrium binding of LXW7-Bio to αvβ3-K562 cells (flow cytometry); design: expressed in transfected cells; host or cells: K562 (gift of Dr. Yoshikazu Takada, UC Davis)
Description: as §1, §3

[6] = 10 μg LM609 premixed with 1 μM LXW7-Bio

Structure (SMILES): CC(C)[C@H]1NC(=O)[C@@H](CC(=O)O)NC(=O)[C@H](CC(=O)O)NC(=O)CNC(=O)[C@H](CCCNC(=N)N)NC(=O)CNC(=O)[C@H](N)CSSC[C@H](C(N)=O)NC1=O [LXW7, cGRGDdvc] (H-[dC]GRGD[dD][dV][dC]-NH2; disulfide 1-8)
- binding with αvβ3 (αvβ3): strong positive binding; also recorded: strongly bound
- binding with αIIbβ3 (αIIbβ3): weak cross-reaction; also recorded: weakly
- binding with α5β1 (α5) (α5β1): no binding; also recorded: not at all
- binding with α1 (α1): no binding; also recorded: not at all
- binding with α2 (α2): no binding; also recorded: not at all
- binding with α3 (α3): no binding; also recorded: not at all
- binding with α4 (α4): no binding
- binding with α6 (α6): no binding; also recorded: not at all
- binding with α9 (α9): no binding; also recorded: not at all
- liver uptake, ex vivo imaging (U-87 MG xenograft): low
- tumor uptake, ex vivo imaging (U-87 MG xenograft): high
- binding to U-87 MG cells in presence of anti-αvβ3 antibody (LM609) (αvβ3 integrin [1]; [6]): markedly blocked
- Bmax (A.U) (αvβ3 integrin [1]; U-87 MG): 86 ± 4 A.U
- Kd (αvβ3 integrin [1]; U-87 MG): 72 ± 15 nM
- binding to A375M cells in presence of anti-αvβ3 antibody (LM609) (αvβ3 integrin [2]; [6]): markedly blocked
- Bmax (A.U) (αvβ3 integrin [2]; A375M): 71 ± 4 A.U
- Kd (αvβ3 integrin [2]; A375M): 89 ± 8 nM
- binding strength to αvβ3 integrin, biotinylated versus non-biotinylated, in words (αvβ3 integrin [3]): near identical binding strength
- IC50 (αvβ3 integrin [3]; LXW1-8: inhibition of binding of FITC-Echistatin against αvβ3-K562, class symbols, read-out: IC50): < 1000 nM
- IC50 (αvβ3 integrin [4]): 590 nM
- Bmax (A.U) (αvβ3 integrin [5]): 1394 ± 57 A.U
- Kd (αvβ3 integrin [5]): 76 ± 10 nM
